The text below walks through data of patent EP3789378A1, “PIPERIDINES OR PIPERIDONES SUBSTITUTED WITH UREA AND HETEROARYL” (Grünenthal GmbH, priority 2019, dated 2021).

SMILES strings stand for the structures.

For one assay, the target named is T1, h FPR2 (Homo sapiens, UniProt P25090).
T1 construct: expressed in transfected cells
T1 sequence (P25090 1-351): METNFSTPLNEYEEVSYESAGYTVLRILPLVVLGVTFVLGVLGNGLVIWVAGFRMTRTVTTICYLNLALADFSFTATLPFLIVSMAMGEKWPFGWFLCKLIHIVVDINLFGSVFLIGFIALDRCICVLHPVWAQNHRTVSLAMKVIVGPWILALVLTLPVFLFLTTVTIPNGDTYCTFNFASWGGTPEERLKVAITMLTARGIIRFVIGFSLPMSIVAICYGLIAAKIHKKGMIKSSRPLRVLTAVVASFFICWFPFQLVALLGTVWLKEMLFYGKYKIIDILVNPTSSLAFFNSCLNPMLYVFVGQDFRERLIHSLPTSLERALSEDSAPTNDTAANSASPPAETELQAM
Put plainly: Agonistic activity in hFPR2-Aq-CHO cells (FLIPR Calcium 5 fluorescence assay). The following applies: 11 point half log dilution, final assay concentration from 10µM. Format: cell-based. As to the method: After washing, the cells are plated at 10,000 cells per well in 40 µL complete medium in a 384-well sterile clear bottom black plate and incubated in a 5% CO2 incubator at 37°C for 18 hours. Plating media is removed from each well by decanting and gentle tapping before 30 µL of 0.5X Calcium 5 dye solution (0.5X FLIPR Calcium 5 dye (Molecular devices, R8186)); HBSS; 20mM HEPES; 2.5mM Probenecid; 0.025% Pluronic F-127; pH adjusted to 7.4) is added to each well and the plate is then incubated at 37°C for 30 minutes. For the assay the plate is equilibrated at room temperature for 10 minutes before placing it in the FLIPR. Compounds are dissolved in DMSO and serially diluted over an 11 point half log (3.16 fold) dilution (2 mM to 20 nM). Compounds are then diluted 1:50 in assay buffer (HBSS; 20mM HEPES; 2.5mM Probenecid; 0.05% gelatin; 0.1% BSA; pH adjusted to 7.4) just before performing the assay. Compounds are finally added to the respective wells of the cell plate (final assay concentration 10 µM to 100 pM) using the FLIPR (e.g. FLIPR-Tetra, Molecular Devices) and fluorescence readings are captured for 5 minutes. The increase in fluorescence from the basal reading in the presence of the compounds is compared with that of the control wells (wells having no compound) to calculate the activity of the compounds. The EC50 values of the compounds can be determined using e.g. Graph pad Prism software.
Assay method for measuring agonistic activity of compounds in hFPR2-Aq-CHO cell
Cryo-vial containing 6x10^6 cells (hFPR1-Gα15-CHO or hFPR2-Aq-CHO) was thawed in a 37°C water bath. Cells were suspended in 10ml of respective complete growth media (F12(1X)HAM media (Gibco; Cat#11765); 10% HI-FBS (Gibco; Cat#10082); 0.4 mg/ml Geneticin (Gibco; Cat#10131); 0.25 mg/ml Zeocin (Invitrogen; Cat#R25001)) in a 15ml centrifuge tube. The cell viability was checked with the help of Trypan Blue dye. Upon washing the cells, those were plated in a 384-well sterile clear bottom black plate (Greiner Bioone Cat# 781091) so that, each well contained 10,000 cells in 40µl complete growth media. The plate was incubated in a 5% CO2 incubator at 37°C for 18 hours. Before assay on the next day, the cell plating media was removed from each well of the plate by decanting and gentle tapping. 30µl of 0.5X Calcium 5 dye solution (0.5X FLIPR Calcium 5 dye (Molecular devices Cat# R8186); HBSS (Invitrogen; Cat#14025); 20mM HEPES (Sigma; Cat#H0887); 2.5mM Probenecid (Sigma; Cat#P8761); 0.025% Pluronic F-127 (Sigma; Cat#P2443); pH adjusted to 7.4) was added to each well. The plate was then incubated at 37°C for 30 minutes. Following which the plate was equilibrated at room temperature for 10 minutes before placing it in a 384 well FLIPR for assay. Compounds were dissolved in DMSO and serially diluted following 11 point half log (3.16 fold) dilution with a starting concentration of 2mM (Final assay concentration 10µM). Aliquots of above mentioned each dilution was mixed with assay buffer (HBSS (Invitrogen; Cat#14025); 20mM HEPES (Sigma; Cat#H0887); 2.5mM Probenecid (Sigma; Cat#P8761); 0.05% gelatin (Sigma; Cat#G1890); 0.1% BSA (Sigma; Cat#A3059); pH adjusted to 7.4) just before performing the assay. Compounds were added to the respective wells of the assay ready cell plate with the help of the FLIPR (FLIPR Tetra) and fluorescence readings were captured for 5 minutes to measure any agonistic response of the compounds. The increase in fluorescence readings from the basal reading in presence of the compounds were compared with that of the control wells (wells having no compound) to calculate the agonistic activity of the compounds. The EC50 values of the compounds were determined using the Graph pad Prism software.
Broadly, the EC50 is the concentration giving half of the maximal effect. As to `COc1ccc([C@@H]2CN(C(=O)c3ccc(C)nc3)CC[C@H]2NC(=O)Nc2ccc(Cl)cc2)nc1` (single isomer, unassigned) [Ex-55, trans-1-(4-chlorophenyl)-3-[3-(5-methoxypyridin-2-yl)-1-[(6-methylpyridin-3-yl)carbonyl]piperidin-4-yl]urea], the EC50 was 40 nM.
On the same count and under the same terms, the figure for `COc1ccc([C@@H]2CN(Cc3ccc(C(F)(F)F)nc3)CC[C@H]2NC(=O)Nc2ccc(Cl)cc2)nc1` (relative stereo) [Ex-60, trans-1-(4-chlorophenyl)-3-(3-(5-methoxypyridin-2-yl)-1-((6-(trifluoromethyl)pyridin-3-yl)methyl)piperidin-4-yl)urea] is 0.04 nM.
The same measure, in the same setting: for `O=C(Nc1ccccc1)N[C@@H]1CCN(CC2CNC2)C[C@H]1c1ccc(Cl)cn1` (relative stereo) [Ex-186, trans-1-(1'-azetidin-3-ylmethyl-5-chloro-1',2',3',4',5',6'-hexahydro-[2,3']bipyridinyl-4'-yl)-3-phenyl-urea] the value was 27 nM; for `COCCCN1CC[C@@H](NC(=O)Nc2ccc(Cl)cc2)[C@H](c2ccc(OC)cn2)C1` (single isomer, unassigned) [Ex-191, trans-1-(4-chlorophenyl)-3-[1-(3-methoxypropyl)-3-(5-methoxypyridin-2-yl)piperidin-4-yl]urea], 0.7 nM.
The same measure, in the same setting: the figure for `O=C(Nc1ccc(Cl)cc1)N[C@@H]1CCN(c2ccncn2)C[C@H]1c1ccc(Cl)cn1` (relative stereo) [Ex-9, trans-1-(4-chloro-phenyl)-3-(5-chloro-1'-pyrimidin-4-yl-1',2',3',4',5',6'-hexahydro-[2,3']bipyridinyl-4'-yl)-urea] is 2 nM; for `COc1ccc([C@@H]2CN(CC3CC(OC)C3)CC[C@H]2NC(=O)Nc2ccc(Cl)cc2)nc1` (single isomer, unassigned) [Ex-195, trans-1-(4-chloro-phenyl)-3-[5-methoxy-1'-(3-methoxy-cyclobutylmethyl)-1',2',3',4',5',6'-hexahydro-[2,3']bipyridinyl-4'-yl]-urea] it is 0.5 nM; for `COc1ccc([C@@H]2CN(CC3(C#N)CC3)CC[C@H]2NC(=O)Nc2ccc(Cl)cc2)nc1` (relative stereo) [Ex-155, trans-1-(4-Chlorophenyl)-3-[1-[(1-cyano-cyclopropyl)-methyl]-3-(5-methoxy-pyridin-2-yl)-piperidin-4-yl]-urea] it is 0.09 nM.
Turning to `COc1ccc([C@@H]2CN(C(=O)c3ccc(C)nc3)CC[C@H]2NC(=O)Nc2ccc(C#N)cc2)nc1` (relative stereo) [Ex-128, trans-1-(4-Cyano-phenyl)-3-[3-(5-methoxy-pyridin-2-yl)-1-(6-methyl-pyridine-3-carbonyl)-piperidin-4-yl]-urea], the 50% effective concentration (EC50) was found to be 5 nM.
The same measure, in the same setting: the figure for `COCCCN1CC[C@@H](NC(=O)Nc2ccccc2)[C@H](c2ccc(OC)cn2)C1` (relative stereo) [Ex-158, trans-1-[1-(3-Methoxy-propyl)-3-(5-methoxy-pyridin-2-yl)-piperidin-4-yl]-3-phenyl-urea] is 31 nM; for `COc1ccc([C@@H]2CN(CCS(C)(=O)=O)CC[C@H]2NC(=O)Nc2cc(C)ns2)nc1` (relative stereo) [Ex-148, trans-1-[3-(5-Methoxy-pyridin-2-yl)-1-(2-methylsulfonyl-ethyl)-piperidin-4-yl]-3-(3-methyl-isothiazol-5-yl)-urea] it is 6 nM; for `COc1ccc([C@@H]2CN(c3cnccn3)CC[C@H]2NC(=O)Nc2ccc(Cl)cc2)nc1` (relative stereo) [Ex-226, trans-1-(4-chloro-phenyl)-3-(5-methoxy-1'-pyrazin-2-yl-1',2',3',4',5',6'-hexahydro-[2,3']bipyridinyl-4'-yl)-urea] it is 0.9 nM.
Same read-out and setting: the figure for `COc1cnc([C@@H]2CN(CCCO)CC[C@H]2NC(=O)Nc2ccc(Cl)cc2)c(F)c1` (relative stereo) [Ex-197, trans-1-(4-chloro-phenyl)-3-[3-fluoro-1'-(3-hydroxy-propyl)-5-methoxy-1',2',3',4',5',6'-hexahydro-[2,3']bipyridinyl-4'-yl]-urea] is 0.9 nM; for `COc1ccc([C@@H]2CN(C(=O)C3COC3)CC[C@H]2NC(=O)Nc2ccc(Cl)cc2)nc1` (relative stereo) [Ex-92, trans-1-(4-chloro-phenyl)-3-[5-methoxy-1'-(oxetane-3-carbonyl)-1',2',3',4',5',6'-hexahydro-[2,3']bipyridinyl-4'-yl]-urea] it is 4 nM.
On the same count and under the same terms, for `COc1ccc([C@@H]2CN(CC3CCC(OC)CC3)CC[C@H]2NC(=O)Nc2ccc(Cl)cc2)nc1` (relative stereo) [Ex-115, trans-1-(4-chloro-phenyl)-3-[5-methoxy-1'-(4-methoxy-cyclohexylmethyl)-1',2',3',4',5',6'-hexahydro-[2,3']bipyridinyl-4'-yl]-urea] the value was 0.5 nM; for `COc1ccc([C@@H]2CN(CCO)CC[C@H]2NC(=O)Nc2ccccc2)nc1` (relative stereo) [Ex-164, trans-1-[1-(2-Hydroxy-ethyl)-3-(5-methoxy-pyridin-2-yl)-piperidin-4-yl]-3-phenyl-urea], 56 nM.
Turning to `COc1cnc([C@@H]2CN(CCN(C)C)CC[C@H]2NC(=O)Nc2ccc(Cl)cc2)c(F)c1` (relative stereo) [Ex-213, trans-1-(4-chloro-phenyl)-3-[1'-(2-dimethylamino-ethyl)-3-fluoro-5-methoxy-1',2',3',4',5',6'-hexahydro-[2,3']bipyridinyl-4'-yl]-urea], the EC50 was determined as 1.05 nM.
The same measure, in the same setting: the figure for `COCCCN1CC[C@@H](NC(=O)Nc2ccc(Cl)cc2)[C@H](c2ccc(Cl)s2)C1` (relative stereo) [Ex-91, trans-1-(4-chloro-phenyl)-3-[3-(5-chloro-thiophen-2-yl)-1-(3-methoxy-propyl)-piperidin-4-yl]-urea] is 11 nM; for `O=C(Nc1ccc(Cl)cc1)N[C@@H]1CCN(Cc2cncc(Cl)c2)C[C@H]1c1ccc(Cl)s1` (relative stereo) [Ex-71, trans-1-(4-chlorophenyl)-3-(1-((5-chloropyridin-3-yl)methyl)-3-(5-chlorothiophen-2-yl)piperidin-4-yl)urea] it is 2 nM.
On to `O=C(Nc1ccc(Cl)cc1)NC1CC(=O)N(c2ccc(F)cc2)CC1c1ccc(Cl)cn1` (single isomer, unassigned) [Ex-15, 1-(4-chlorophenyl)-3-[5-(5-chloropyridin-2-yl)-1-(4-fluorophenyl)-2-oxopiperidin-4-yl]urea], for which the EC50 was determined as 7 nM.

Still in this assay, the particulars now being: agonistic response at 0.1µM.
`COc1ccc([C@@H]2CN(CC(N)=O)CC[C@H]2NC(=O)Nc2ccc(Cl)cc2)nc1` (relative stereo) [Ex-171, trans-2-[4-[[(4-Chlorophenyl)-carbamoyl]amino]-3-(5-methoxy-pyridin-2-yl)-piperidin-1-yl]-acetamide]: the activation at 0.1 µM was 3%.
